Data: paper PMC8200237, “New Oxaliplatin-Pyrophosphato Analogs with Improved In Vitro Cytotoxicity” (Molecules, 2021)
Where two headings read alike, the source gives them in different places.

What was measured:
[1] = Stability in physiological conditions by 31P NMR (pH 7.4); format: physicochemical; conditions: D2O, HEPES buffer 50 mM, pH 7.4, 120 mM NaCl, 37 °C
Procedure: To investigate the stability of 1 and 2 in physiological-like conditions, their solutions in D2O containing HEPES buffer (50 mM, pH = 7.4) and NaCl (120 mM) were monitored at 37 °C by ^31P NMR spectroscopy. […] However, overall, also compound 2 can be considered stable for the time necessary to perform the in vitro cytotoxicity tests (72 h, see following section).
(§1) The stability of compounds 1 and 2 at 37 °C in buffered solutions was assessed by ^31P NMR spectroscopy. Each compound (~2 mg) was dissolved in 0.8 mL of D2O containing 50 mM 4-(2-hydroxyethyl)-1-piperazineethanesulfonic acid) (HEPES) buffer (pH* = 7.4 or pH* = 6.5) and 120 mM NaCl. The resulting solutions were transferred into NMR tubes and maintained at 37 °C. ^31P NMR spectra were recorded from time to time over a period of one month.

[2] = test system: MDA MB 231 human breast cancer cells; test: MTT cell viability assay, MDA MB 231; format: cell-based; conditions: MTT test, 72 h; read-out: IC50 (µM) ± S.D. MDAMB231
Procedure: (§2) The in vitro cytotoxicity of the Pt-pyrophosphato complexes (1, 2, 3, and 4) was evaluated on a panel of human cancer cell lines and compared to that of cisplatin and oxaliplatin. Cell lines representative of colon (HCT-116), prostate (PC3), breast (MDA-MB231), and […] (OV2008) carcinomas were included.
(§3) The number of living cells was evaluated by the 3-(4,5-dimethylthiazol-2-yl)-2,5-diphenyltetrazolium bromide (MTT) assay. Briefly, HCT116 human colon cancer cells, PC3 human prostate cancer cells, OV2008 human ovarian cancer cells, and MDA MB 231 human breast cancer cells were plated in 96-well plates at a density of ~5000 cells/well. After one day of incubation at 37 °C in a humid atmosphere with 5% CO2, the culture medium was replaced with 100 µL of fresh medium (control cells) or medium containing different concentrations of the test compounds in the range 1.56–100 µM. Untreated cells were used as positive controls. After the incubation period of 72 h, 10 µL of a 0.5% (w/v) MTT/PBS solution was added to each well and the incubation was prolonged for a further 2 h. After this period, the medium was removed and replaced with 100 µL of DMSO. The absorbance of each well was measured by a microplate reader (Wallac Victor3, 1420 Multilabel Counter, Perkin-Elmer, Singapore). Each compound concentration was tested in triplicate, and results were presented as percentage of the control value. IC50 values were calculated using non-linear regression in GraphPad Prism 5.01 (San Diego, CA, USA). […]
(§4) Table S1. In vitro cytotoxicitya […]
(§5) aCells (3–5·10^3 cells […]) were treated for 72 h with increasing concentrations of the tested compounds. Cytotoxicity was assessed by the MTT test. IC50 values were calculated by the four parameter logistic model (p < 0.05). S.D. = standard deviation. OXP = oxaliplatin, CDDP = cisplatin.

[3] = test system: PC3 human prostate cancer cells; test: MTT cell viability assay, PC3; format: cell-based; conditions: MTT test, 72 h; read-out: IC50 (µM) ± S.D. PC3
Procedure: as §2, §3, §4, §5

[4] = 31P NMR chemical shift/pH titration, acidity constants; format: physicochemical; conditions: D2O, 31P NMR titration; for pKa1 (first inflection point, pH*): first deprotonation step; for pKa2 (second inflection point, pH*): second deprotonation of coordinated pyrophosphate
Procedure: The pH titration of complexes 1 and 2 was carried on by recording ^31P NMR spectra at different pH* values (Figure 5).
Acidity constants for complexes 1 and 2 were determined by ^31P NMR chemical shift/pH titrations. Either compound 1 or 2 (0.0047 mmol) was dissolved in 0.550 mL of D2O and transferred into an NMR tube. The pH* of the sample was adjusted to the required value by addition of DClO4 (10, 1.0, 0.5, 0.1, or 0.05 M) or NaOD (1.0, 0.5, 0.1, or 0.05 M) solutions, and the pH* value was measured by using a 3 mm diameter electrode for NMR tubes. No control of the ionic strength was performed. The pH titration curves were fitted to the Henderson−Hasselbalch equation using the program KaleidaGraph (version 3.5, Synergy Software, Reading, PA, USA).

[5] = test system: HCT116 human colon cancer cells; test: MTT cell viability assay, HCT116; format: cell-based; conditions: MTT test, 72 h; read-out: IC50 (µM) ± S.D. HCT116
Procedure: as §2, §3, §4, §5

[6] = Stability in acidic environment by 31P NMR (pH* 6.5); format: physicochemical; conditions: D2O, HEPES buffer 50 mM, pH* 6.5, 120 mM NaCl, 37 °C
Procedure: To simulate the acidic environment surrounding cancer tissues, the stability of 1 and 2 was also investigated at pH* = 6.5 and 37 °C by ^31P NMR spectroscopy.
as §1

[7] = test system: panel of four human cancer cell lines; test: MTT cytotoxicity, average over the four cell lines; format: cell-based; conditions: average over HCT116, PC3, OV2008, MDAMB231; MTT test, 72 h; read-out: IC50 (µM) ± S.D. Average
Procedure: as §2
From this point of view, oxaliplatin represents a better reference compound, with the bidentate oxalato ligand being more similar to the bidentate pyrophosphato ligand.
as §3, §4, §5

[8] = test system: OV2008 human cervical cancer cells; test: MTT cell viability assay, OV2008; format: cell-based; conditions: MTT test, 72 h; read-out: IC50 (µM) ± S.D. OV2008
Procedure: as §2, §3, §4, §5

HCT116 cells = test: Annexin V/PI apoptosis assay by flow cytometry; format: cell-based, human
Procedure: In order to obtain information on tumor cells’ death, the Annexin V/propidium iodide (PI) assay was used in flow cytometry analyses. Annexin V provides a very sensitive method for detecting cellular apoptosis, while PI is commonly used to detect necrotic or late apoptotic cells (when positive to Annexin too). The FITC Annexin V staining was carried out after 24 and 48 h of incubation of HCT116 cells with the Pt-pyrophosphato complexes (1–4) or oxaliplatin/cisplatin (used as reference compounds) at the IC50 concentrations (Supplementary Materials, Table S1). The two-dimensional dot plots can be divided into four quadrants, corresponding to: (i) viable cells, which are negative to both probes (lower left quadrant; PI/FITC −/−), (ii) early apoptotic cells, which are PI-negative and Annexin V-positive (lower right quadrant; PI/FITC −/+), (iii) late apoptotic cells, which are Annexin- and PI-positive (upper right quadrant; PI/FITC +/+), and (iv) necrotic cells, which are PI-positive and Annexin-negative (upper left quadrant; PI/FITC +/−).
The Annexin V/PI assay was conducted as previously described in order to investigate the mechanism of cell death induced by the various compounds on HCT116 cells. […]

[9] = cited from earlier work
[10] = cited from earlier work; remark: listed apart in the source
[11] = free pyrophosphate, cited from earlier work

Compound: NC1CC=CCC1N.O=P1(O)[O][Pt][O]P(=O)(O)O1 (racemic) [Compound 2, [Pt(dihydrogenpyrophosphato)(1,2-DACHEX)]]
- time at which a small 31P NMR signal of free pyrophosphate is first observed [1]: 120 h
- IC50 [2]: 39 ± 4 µM
- IC50 [3]: 100 ± 6 µM
- pKa1 (first inflection point, pH*) [4]: 2.02
- pKa2 (second inflection point, pH*) [4]: 4.23
- IC50 [5]: 20 ± 2 µM
- time at which a small 31P NMR signal of free pyrophosphate is first observed [6]: 96 h
- IC50 [7]: 47 ± 6 µM
- IC50 [8]: 30 ± 3 µM

Compound: [NH2][Pt]([NH2])([Cl])[Cl] [CDDP, cisplatin, reference compound]
- IC50 [2]: 2 ± 1 µM
- IC50 [3]: 9 ± 3 µM
- IC50 [5]: 9 ± 2 µM
- IC50 [7]: 6 µM
- IC50 [8]: 4 ± 1 µM

Compound: O=P1([O-])OP(=O)([O-])[O][Pt]2([NH]C3CCCC(C3)[NH]2)[O]1.[Na+].[Na+] (stereo not drawn) [Compound 1, Na2[Pt(pyrophosphato)(cis-1,3-DACH)]]
- time at which a small 31P NMR signal of free pyrophosphate is first observed [1]: 672 h
- IC50 [2]: 26 ± 3 µM
- IC50 [3]: 29 µM
- pKa1 (first inflection point, pH*) [4]: 2.28
- pKa2 (second inflection point, pH*) [4]: 4.55
- IC50 [5]: 21 ± 2 µM
- time at which a small 31P NMR signal of free pyrophosphate is first observed [6]: 168 h
- IC50 [7]: 23 µM
- IC50 [8]: 15 ± 2 µM

Compound: N[C@@H]1CCCC[C@H]1N.O=P([O-])(O)OP(=O)([O-])O.[Pt+2] [Compound 3, [Pt(dihydrogenpyrophosphato)(1R,2R-DACH)], reference compound]
- IC50 [2]: 91 ± 5 µM
- IC50 [3]: 100 ± 8 µM
- IC50 [5]: 19 ± 4 µM
- IC50 [7]: 60 ± 8 µM
- % viable cells (lower left quadrant, PI-/Annexin V-) (HCT116 cells): 84.912%
- IC50 [8]: 29 ± 5 µM
- pKa1 [9]: 2.06
- pKa2 [9]: 4.40
- stability in physiological conditions [10]: quite stable

Compound: O=P1(O)OP(=O)(O)[O][Pt]2([NH]C3CCC(CC3)[NH]2)[O]1 (stereo not drawn) [Compound 4, [Pt(dihydrogenpyrophosphato)(cis-1,4-DACH)]]
- IC50 [2]: 100 ± 7 µM
- IC50 [3]: 100 ± 5 µM
- IC50 [5]: 44 ± 3 µM
- IC50 [7]: 72 ± 7 µM
- IC50 [8]: 46 ± 5 µM
- pKa1 [9]: 2.03
- pKa2 [9]: 4.47
- stability in physiological conditions [10]: quite stable

Compound: O=C1[O][Pt]2([NH][C@@H]3CCCC[C@H]3[NH]2)[O]C1=O [OXP, oxaliplatin]
- IC50 [2]: 93 ± 6 µM
- IC50 [3]: 100 ± 5 µM
- IC50 [5]: 72 µM
- IC50 [7]: 80 µM
- IC50 [8]: 54 ± 4 µM

Compound: O=P(O)(O)OP(=O)(O)O [Pyrophosphate]
- pKa1 ([11]; tetrabasic acid): 0.85
- pKa2 [11]: 1.49
- pKa3 [11]: 5.77
- pKa4 [11]: 8.22
